{"source": "patent US8703796B2", "about": "“3H-imidazo [4, 5-B] pyridine-6-carboxamides as anti-inflammatory agents” (Boehringer Ingelheim International GmbH, priority 2008, dated 2014)"}
{"molecular_target": "T1, recombinant human mPGES-1 (Homo sapiens, UniProt O14684)", "T1 construct": "made in house; host or cells: Rosetta E. coli (microsomal/membrane fraction)", "T1 sequence (O14684 1-152)": "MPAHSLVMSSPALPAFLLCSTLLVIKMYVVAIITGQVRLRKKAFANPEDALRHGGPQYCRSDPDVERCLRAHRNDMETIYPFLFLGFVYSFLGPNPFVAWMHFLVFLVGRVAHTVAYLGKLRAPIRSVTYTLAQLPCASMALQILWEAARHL", "assay": "mPGES-1 inhibition, HTRF detection of PGE2", "format": "biochemical", "method": "Microsomes from Rosetta E. coli bacteria expressing recombinant human mPGES-1 is dissolved in 0.1 M KPi pH 7.4 buffer containing 2.5 mM GSH. 50 μl of the enzyme is subsequently dispensed in a 384-well plate. 0.5 μl of the inhibitor dissolved in DMSO at is thereafter added to each well and incubated for 25 minutes at room temperature. Subsequently, 2 μl of PGH2 dissolved in an appropriate solvent is added to each well and after one minute the acidified stop solution containing FeCl2 is added. 4 μl of the total volume is transferred to a separate plate and diluted 750-fold in two separate steps before HTRF detection of PGE2.\nThe HTRf detection is performed by the use of a commercially available kit from CisBio essentially according to the manufacturer's protocol. Briefly, 10 μl of the diluted sample is transferred to a white 384-well plate. 5 μl of d2 and 5 μl Eu3+-Cryptate labeled anti-PGE2 is added to each well containing samples by the use of a Multidrop. The plate is covered with a plastic self-adhesive film, centrifuged at 1200 rpm for 1 minute and subsequently stored at +4° C. over night.\nAfter over night incubation the fluorescence is measured by the use of an appropriate microplate reader. The fluorescence of europium cryptate, and d2 are measured using the following excitation and emission wavelength, europium cryptate: λmax^ex=307 nm, λmax^em=620 nm and d2: λmax^ex=620 nm, λmax^em=665 nm), respectively. The extent of the specific FRET is measured as a ratio of the emission intensity at 665 nm vs. that at 620 nm. A standard curve using synthetic PGE2 is used to quantify the amount of PGE2 in unknown samples.", "units": {"inhibition at 10 µM": "%"}}
{"compound": "Cn1c(Nc2c(Cl)ccc(Cl)c2F)nc2cc(C(=O)N[C@H]3CC[C@H](C(F)(F)F)CC3)c(OCC(F)F)nc21", "note": "[Example 787, 2-(3,6-Dichloro-2-fluoro-phenylamino)-5-(2,2-difluoro-ethoxy)-N-(trans-4-trifluoromethyl-cyclohexyl)-3-methyl-3H-imidazo[4,5-b]pyridine-6-carboxamide]", "inhibition at 10 µM": 98}
{"compound": "Cc1ccnc(Cl)c1Nc1nc2cc(C(=O)N[C@H]3CC[C@H](C(F)(F)F)CC3)c(OCC(F)F)nc2n1C", "note": "[Example 788, 2-(2-Chloro-4-methyl-pyridin-3-ylamino)-5-(2,2-difluoro-ethoxy)-N-(trans-4-trifluoromethyl-cyclohexyl)-3-methyl-3H-imidazo[4,5-b]pyridine-6-carboxamide]", "inhibition at 10 µM": 98}
{"compound": "Cn1c(Nc2cnccc2C(F)(F)F)nc2cc(C(=O)N[C@H]3CC[C@H](C(F)(F)F)CC3)c(OCC(F)F)nc21", "note": "[Example 789, 2-(4-Trifluoromethyl-pyridin-3-ylamino)-5-(2,2-difluoro-ethoxy)-N-(trans-4-trifluoromethyl-cyclohexyl)-3-methyl-3H-imidazo[4,5-b]pyridine-6-carboxamide]", "inhibition at 10 µM": 95}
{"compound": "O=C(NCc1ccccc1C(F)(F)F)c1cc2nc(Nc3c(Cl)cncc3Cl)[nH]c2nc1OC1CCOC1", "note": "(centres unmarked) [Example 790, 2-(3,5-Dichloro-pyridin-4-ylamino)-5-(tetrahydrofuran-3-yl-oxy)-N-((2-trifluoromethyl-phenyl)-methyl)-3H-imidazo[4,5-b]pyridine-6-carboxamide]", "inhibition at 10 µM": 97}
{"compound": "O=C(Nc1ccc(Br)cc1)c1cc2nc(Nc3c(Cl)cncc3Cl)[nH]c2nc1OC1CCOC1", "note": "(centres unmarked) [Example 791, 2-(3,5-Dichloro-pyridin-4-ylamino)-5-(tetrahydrofuran-3-yl-oxy)-N-(4-bromo-phenyl)-3H-imidazo[4,5-b]pyridine-6-carboxamide]", "inhibition at 10 µM": 89}
{"compound": "O=C(NCC(F)(F)C(F)(F)C(F)(F)C(F)(F)F)c1cc2nc(Nc3c(Cl)cncc3Cl)[nH]c2nc1OC1CCOC1", "note": "(centres unmarked) [Example 792, 2-(3,5-Dichloro-pyridin-4-ylamino)-5-(tetrahydrofuran-3-yl-oxy)-N-(2,2,3,3,4,4,5,5,5-nonafluoro-pentyl)-3H-imidazo[4,5-b]pyridine-6-carboxamide]", "inhibition at 10 µM": 96}
{"compound": "Cc1cc(C)c(Nc2nc3cc(C(=O)N[C@H]4CC[C@H](C(F)(F)F)CC4)c(OCC(F)F)nc3[nH]2)c(Cl)n1", "note": "[Example 793, 2-(2-Chloro-4,6-dimethyl-pyridin-3-ylamino)-5-(2,2-difluoro-ethoxy)-N-(trans-4-trifluoromethyl-cyclohexyl)-3H-imidazo[4,5-b]pyridine-6-carboxamide]", "inhibition at 10 µM": 94}
{"compound": "Cc1ccnc(C)c1Nc1nc2cc(C(=O)N[C@H]3CC[C@H](C(F)(F)F)CC3)c(OCC(F)F)nc2[nH]1", "note": "[Example 794, 2-(2,4-Dimethyl-pyridin-3-ylamino)-5-(2,2-difluoro-ethoxy)-N-(trans-4-trifluoromethyl-cyclohexyl)-3H-imidazo[4,5-b]pyridine-6-carboxamide]", "inhibition at 10 µM": 100}
{"compound": "Cc1ccnc(Br)c1Nc1nc2cc(C(=O)N[C@H]3CC[C@H](C(F)(F)F)CC3)c(OCC(F)F)nc2[nH]1", "note": "[Example 795, 2-(2-Bromo-4-methyl-pyridin-3-ylamino)-5-(2,2-difluoro-ethoxy)-N-(trans-4-trifluoromethyl-cyclohexyl)-3H-imidazo[4,5-b]pyridine-6-carboxamide]", "inhibition at 10 µM": 98}
{"compound": "O=C(N[C@H]1CC[C@H](C(F)(F)F)CC1)c1cc2nc(Nc3c(Cl)ccc(Cl)c3F)[nH]c2nc1OCC(F)F", "note": "[Example 796, 2-(3,6-Dichloro-2-fluoro-phenylamino)-5-(2,2-difluoro-ethoxy)-N-(trans-4-trifluoromethyl-cyclohexyl)-3H-imidazo[4,5-b]pyridine-6-carboxamide]", "inhibition at 10 µM": 96}
{"compound": "Cc1ccnc(Cl)c1Nc1nc2cc(C(=O)N[C@H]3CC[C@H](C(F)(F)F)CC3)c(OCC(F)F)nc2[nH]1", "note": "[Example 797, 2-(2-Chloro-4-methyl-pyridin-3-ylamino)-5-(2,2-difluoro-ethoxy)-N-(trans-4-trifluoromethyl-cyclohexyl)-3H-imidazo[4,5-b]pyridine-6-carboxamide]", "inhibition at 10 µM": 100}
{"compound": "O=C(N[C@H]1CC[C@H](C(F)(F)F)CC1)c1cc2nc(Nc3cccnc3C(F)(F)F)[nH]c2nc1OCC(F)F", "note": "[Example 798, 2-(2-Trifluoromethyl-pyridin-3-ylamino)-5-(2,2-difluoro-ethoxy)-N-(trans-4-trifluoromethyl-cyclohexyl)-3H-imidazo[4,5-b]pyridine-6-carboxamide]", "inhibition at 10 µM": 87}
{"compound": "O=C(N[C@H]1CC[C@H](C(F)(F)F)CC1)c1cc2nc(Nc3cnccc3C(F)(F)F)[nH]c2nc1OCC(F)F", "note": "[Example 799, 2-(4-Trifluoromethyl-pyridin-3-ylamino)-5-(2,2-difluoro-ethoxy)-N-(trans-4-trifluoromethyl-cyclohexyl)-3H-imidazo[4,5-b]pyridine-6-carboxamide]", "inhibition at 10 µM": 99}
{"compound": "COCCOc1nc2[nH]c(Nc3c(Cl)cncc3Cl)nc2cc1C(=O)NCc1ccccc1C(F)(F)F", "note": "[Example 800, 2-(3,5-Dichloro-pyridin-4-ylamino)-5-(2-methoxy-ethoxy)-N-((2-trifluoromethyl-phenyl)-methyl)-3H-imidazo[4,5-b]pyridine-6-carboxamide]", "inhibition at 10 µM": 98}
{"compound": "COCCOc1nc2[nH]c(Nc3c(Cl)cncc3Cl)nc2cc1C(=O)Nc1ccc(Br)cc1", "note": "[Example 801, 2-(3,5-Dichloro-pyridin-4-ylamino)-5-(2-methoxy-ethoxy)-N-(4-bromo-phenyl)-3H-imidazo[4,5-b]pyridine-6-carboxamide]", "inhibition at 10 µM": 96}
{"compound": "COCCOc1nc2[nH]c(Nc3c(Cl)cncc3Cl)nc2cc1C(=O)NCC(F)(F)C(F)(F)C(F)(F)C(F)(F)F", "note": "[Example 802, 2-(3,5-Dichloro-pyridin-4-ylamino)-5-(2-methoxy-ethoxy)-N-(2,2,3,3,4,4,5,5,5-nonafluoro-pentyl)-3H-imidazo[4,5-b]pyridine-6-carboxamide]", "inhibition at 10 µM": 96}
{"compound": "O=C(Nc1cc(C(F)(F)F)ccn1)c1cc2nc(Nc3c(Cl)cncc3Cl)[nH]c2nc1OCC(F)F", "note": "[Example 803, 2-(3,5-Dichloro-pyridin-4-ylamino)-5-(2,2-difluoro-ethoxy)-N-(4-trifluoromethyl-pyridin-2-yl)-3H-imidazo[4,5-b]pyridine-6-carboxamide]", "inhibition at 10 µM": 99}
{"compound": "O=C(Nc1ccc(Br)cc1)c1cc2nc(Nc3c(Cl)cncc3Cl)[nH]c2nc1OCC(F)F", "note": "[Example 804, 2-(3,5-Dichloro-pyridin-4-ylamino)-5-(2,2-difluoro-ethoxy)-N-(4-bromo-phenyl)-3H-imidazo[4,5-b]pyridine-6-carboxamide]", "inhibition at 10 µM": 98}
{"compound": "O=C(NCc1ccccc1C(F)(F)F)c1cc2nc(Nc3c(Cl)cncc3Cl)[nH]c2nc1OCC(F)F", "note": "[Example 805, 2-(3,5-Dichloro-pyridin-4-ylamino)-5-(2,2-difluoro-ethoxy)-N-((2-trifluoromethyl-phenyl)-methyl)-3H-imidazo[4,5-b]pyridine-6-carboxamide]", "inhibition at 10 µM": 98}
{"compound": "O=C(NCC(F)(F)C(F)(F)C(F)(F)C(F)(F)F)c1cc2nc(Nc3c(Cl)cncc3Cl)[nH]c2nc1OCC(F)F", "note": "[Example 807, 2-(3,5-Dichloro-pyridin-4-ylamino)-5-(2,2-difluoro-ethoxy)-N-(2,2,3,3,4,4,5,5,5-nonafluoro-pentyl)-3H-imidazo[4,5-b]pyridine-6-carboxamide]", "inhibition at 10 µM": 90}
